The target in experiment [1] is T1, CHOK1 cells engineered to overexpress human CCR2 (Homo sapiens, UniProt P41597).
T1 construct: expressed in transfected cells; host or cells: CHOK1 cells
As to the kind of experiment: Antibody dependent cellular cytotoxicity (ADCC) reporter assay (Example 199). In kind it is cell-based. As to conditions: with anti-cotinine antibody SEQ ID NO: 11/12; CHOK1-human CCR2 target cells, Jurkat FcγRIIIa NFAT-luciferase reporter cells; 12-18 hours; read-out: ADCC Reporter Assay pEC50 (converted). The essentials: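 Potency is reported as pEC50 from a nonlinear fit, averaged over runs, using luciferase signal divided by that of compound-free wells. The readout comes from NFAT-luciferase Jurkat cells expressing FcγRIIIa, mixed for 12–18 h with human CCR2-overexpressing CHOK1 cells, 1 pM–10 μM ARM compound and 0.01–200 μg/mL Fc-enhanced anti-cotinine IgG1.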

Experiment [2] has as its target Anti-cotinine antibody (SEQ ID NO: 11 / SEQ ID NO: 12, rabbit variable region with human IgG1 Fc domain). As to the kind of experiment: Binding of anti-cotinine antibody to ARM compounds by SPR, Biacore T200, 37° C. (Example 202). Conditions: pH 7.4, rabbit variable region/human IgG1 Fc antibody captured on protein A. How it is done:
Anti-cotinine antibodies having a heavy chain sequence of SEQ ID NO: 11 and a light chain sequence of SEQ ID NO: 12 (rabbit variable region with human IgG1 Fc domain containing a DE mutation (S239D/1332E)) were captured on one or more flow cells of a protein A sensor chip (Cytiva) using a Biacore T200 while reserving flow cell 1 as a reference. Following capture, a 3000 second wait step was included to reduce drift during compound analysis. ARM compounds of Formula (I) were then injected at 100 μL/min with 200 and 2000 second association and dissociation times. The entire experiment was run at 37° C. with running buffer containing 10 mM HEPES pH 7.4, 150 mM NaCl, 0.005% P20 and 1% DMSO. ARM compounds of Formula (I) were titrated with a top concentration of 200 nM using a 3-fold 5-point dilution series and a corresponding 5-injection buffer cycle was run for blank subtraction. Data were double referenced by subtracting the response of the reference flow cell from that of the antibody-containing flow cell and subsequently subtracting the referenced blank sensorgrams. Following compound analysis, the surface was regenerated using a 30 second injection of pH 1.5 glycine at a flow rate of 30 μL/min after which antibody was re-captured. The experiment was run using Biacore T200 control software and evaluated using Biacore T200 Evaluation software. Curves were fit with a 1:1 kinetic binding model to obtain kon(1/Ms), koff(1/s), Kd (M) determined as koff/kon, and residence time determined as 1/koff. (s).
Anti-cotinine antibody was tested for binding to ARMs compounds of Formula (I) of the invention in the above assay in or more experimental runs and the results are shown in Table 5 below. Affinity is reported as a pKd value. The pKd value is the negative log of the Kd value, wherein the Kd value is the dissociation constant measured in molar (M) as noted above. For compounds tested in more than one experimental run, the pKd value is reported as an average.
(In general: Surface plasmon resonance follows binding to a sensor surface in real time, without labels.)

Several values for one entry are separate records, joined by “and”; a condition that tells them apart may be missing. Equal values may be shown once.

We go through 15 molecules from patent publication US20250136722A1, “CYTOTOXICITY TARGETING CHIMERAS” (GLAXOSMITHKLINE INTELLECTUAL PROPERTY DEVELOPMENT LIMITED, priority 2021, published 2025).

As to `CC(C)N(C)[C@@H]1CC[C@H](N2CC[C@H](Nc3ncnc4ccc(C(F)(F)F)cc34)C2=O)[C@H](NC(=O)COCCNC(=O)CCOCCNC(=O)COCCNC(=O)[C@H]2CC(=O)N(C)[C@@H]2c2cccnc2)C1` [Example 104, (2S,3S)-N-(18-(((1R,2S,5R)-5-(Isopropyl(methyl)amino)-2-((S)-2-oxo-3-((6-(trifluoromethyl)quinazolin-4-yl)amino)pyrrolidin-1-yl)cyclohexyl)amino)-5,12,18-trioxo-3,9,16-trioxa-6,13-diazaoctadecyl)-1-methyl-5-oxo-2-(pyridin-3-yl)pyrrolidine-3-carboxamide], the EC50 in experiment [1] is 2.28 nM. Moreover, the “pKd of Antibody for ARM Compound of Formula (I)” value (shortened to “pKd of Antibody”) in experiment [2] worked out at 9.051.
The matching figures for `CN1C(=O)C[C@H](C(=O)NCCO[C@H]2CC[C@@H](OCCCC(=O)N[C@H]3CC[C@H](C(=O)N[C@@H]4C[C@H](NC(C)(C)C)CC[C@@H]4N4CC[C@H](Nc5ncnc6ccc(C(F)(F)F)cc56)C4=O)CC3)CC2)[C@H]1c1cccnc1` [Example 2]: 5.06 nM and 9.4775.
As for `CC(C)N(C)[C@@H]1CC[C@H](N2CC[C@H](Nc3ncnc4ccc(C(F)(F)F)cc34)C2=O)[C@H](NC(=O)CCCC(=O)N[C@H]2CC[C@H](CNC(=O)CCOCCNC(=O)[C@H]3CC(=O)N(C)[C@@H]3c3cccnc3)CC2)C1` [compound 180], the EC50 in experiment [1] is 0.456 nM. For the same molecule, the “pKd of Antibody” value in experiment [2] is given as 9.249.
With `CC(C)N(C)[C@@H]1CC[C@H](N2CC[C@H](Nc3ncnc4ccc(C(F)(F)F)cc34)C2=O)[C@H](NC(=O)[C@H]2C[C@@H](NC(=O)CCO[C@H]3CC[C@H](OCCNC(=O)[C@H]4CC(=O)N(C)[C@@H]4c4cccnc4)CC3)C2)C1` [Example 115], in experiment [1], the EC50 was 0.408 nM and 0.305 nM. In addition, in experiment [2], the “pKd of Antibody” value worked out at 9.363.
`CC(C)N(C)[C@@H]1CC[C@H](N2CC[C@H](Nc3ncnc4ccc(C(F)(F)F)cc34)C2=O)[C@H](NC(=O)CCCC(=O)NCCCOCCCNC(=O)CCCNC(=O)[C@H]2CC(=O)N(C)[C@@H]2c2cccnc2)C1` [Example 173, N^1-((1R,2S,5R)-5-(Isopropyl(methyl)amino)-2-((S)-2-oxo-3-((6-(trifluoromethyl)quinazolin-4-yl)amino)pyrrolidin-1-yl)cyclohexyl)-N5-(3-(3-(4-((2S,3S)-1-methyl-5-oxo-2-(pyridin-3-yl)pyrrolidine-3-carboxamido)butanamido)propoxy)propyl)glutaramide]: the EC50 in experiment [1] is 0.794 nM. Moreover, the “pKd of Antibody” value in experiment [2] was found to be 9.1415.
In the case of `CC(C)N(C)[C@@H]1CC[C@H](N2CC[C@H](Nc3ncnc4ccc(C(F)(F)F)cc34)C2=O)[C@H](NC(=O)[C@H]2CC[C@H](NC(=O)CCCOCCCCOCCNC(=O)[C@H]3CC(=O)N(C)[C@@H]3c3cccnc3)CC2)C1` [Example 121, (2S,3S)-N-(2-(4-(4-(((1R,4r)-4-(((1R,2S,5R)-5-(Isopropyl(methyl)amino)-2-((S)-2-oxo-3-((6-(trifluoromethyl)quinazolin-4-yl)amino)pyrrolidin-1-yl)cyclohexyl)carbamoyl)cyclohexyl)amino)-4-oxobutoxy)butoxy)ethyl)-1-methyl-5-oxo-2-(pyridin-3-yl)pyrrolidine-3-carboxamide], the EC50 in experiment [1] is 5.28 nM. The “pKd of Antibody” value in experiment [2] was 9.332.
The matching figures for `CC(C)N(C)[C@@H]1CC[C@H](N2CC[C@H](Nc3ncnc4ccc(C(F)(F)F)cc34)C2=O)[C@H](NC(=O)COCCNC(=O)CCNC(=O)COCCOCCNC(=O)[C@H]2CC(=O)N(C)[C@@H]2c2cccnc2)C1` [Example 79]: 5.2 nM and 9.126.
As for `CC(C)N(C)[C@@H]1CC[C@H](N2CC[C@H](Nc3ncnc4ccc(C(F)(F)F)cc34)C2=O)[C@H](NC(=O)[C@H]2CC[C@@H](NC(=O)CNC(=O)CCOCCOCCNC(=O)[C@H]3CC(=O)N(C)[C@@H]3c3cccnc3)CC2)C1` [Example 83], in experiment [1], the EC50 was 0.269 nM. Besides, in experiment [2], the “pKd of Antibody” value stood at 9.302.
The matching figures for `CC(C)N(C)[C@@H]1CC[C@H](N2CC[C@H](Nc3ncnc4ccc(C(F)(F)F)cc34)C2=O)[C@H](NC(=O)CCCNc2c(NCCOCCOCCOCCOCCNC(=O)[C@H]3CC(=O)N(C)[C@@H]3c3cccnc3)c(=O)c2=O)C1` [Example 164, (2S,3S)-N-(14-((2-((4-(((1R,2S,5R)-5-(Isopropyl(methyl)amino)-2-((S)-2-oxo-3-((6-(trifluoromethyl)quinazolin-4-yl)amino)pyrrolidin-1-yl)cyclohexyl)amino)-4-oxobutyl)amino)-3,4-dioxocyclobut-1-en-1-yl)amino)-3,6,9,12-tetraoxatetradecyl)-1-methyl-5-oxo-2-(pyridin-3-yl)pyrrolidine-3-carboxamide]: 1.35 nM and 9.3225.
For `CC(C)N(C)[C@@H]1CC[C@H](N2CC[C@H](Nc3ncnc4ccc(C(F)(F)F)cc34)C2=O)[C@H](NC(=O)CCCC(=O)N[C@H]2CC[C@@H](CNC(=O)CCOCCNC(=O)[C@H]3CC(=O)N(C)[C@@H]3c3cccnc3)CC2)C1` [Example 179, N^1-((1R,2S,5R)-5-(isopropyl(methyl)amino)-2-((S)-2-oxo-3-((6-(trifluoromethyl)quinazolin-4-yl)amino)pyrrolidin-1-yl)cyclohexyl)-N^5-((1R,4S)-4-((3-(2-((2S,3S)-1-methyl-5-oxo-2-(pyridin-3-yl)pyrrolidine-3-carboxamido)ethoxy)propanamido)methyl)cyclohexyl)glutaramide], the EC50 in experiment [1] was 0.724 nM. Further, the “pKd of Antibody” value in experiment [2] came out at 9.24.
The matching figures for `CC(C)N(C)[C@@H]1CC[C@H](N2CC[C@H](Nc3ncnc4ccc(C(F)(F)F)cc34)C2=O)[C@H](NC(=O)CCOCCOCCNC(=O)COCCNC(=O)CCNC(=O)[C@H]2CC(=O)N(C)[C@@H]2c2cccnc2)C1` [Example 75]: 1.63 nM and 9.103.
`CC(C)N(C)[C@@H]1CC[C@H](N2CC[C@H](Nc3ncnc4ccc(C(F)(F)F)cc34)C2=O)[C@H](NC(=O)[C@H]2CC[C@H](NC(=O)CCO[C@H]3CC[C@H](OCCNC(=O)[C@H]4CC(=O)N(C)[C@@H]4c4cccnc4)CC3)CC2)C1` [Example 113]: in experiment [1], the EC50 is 4.82 nM and 8.17 nM. Besides, in experiment [2], the “pKd of Antibody” value amounted to 9.767.
With `CC(C)N(C)[C@@H]1CC[C@H](N2CC[C@H](Nc3ncnc4ccc(C(F)(F)F)cc34)C2=O)[C@H](NC(=O)[C@H]2CC[C@H](CNC(=O)CCCC(=O)NCCCOCCCNC(=O)[C@H]3CC(=O)N(C)[C@@H]3c3cccnc3)CC2)C1` [Example 20], in experiment [1], the EC50 was 0.0832 nM. The “pKd of Antibody” value in experiment [2] stood at 8.8705.
With `CC(C)N(C)[C@@H]1CC[C@H](N2CC[C@H](Nc3ncnc4ccc(C(F)(F)F)cc34)C2=O)[C@H](NC(=O)CCOCCOCCNC(=O)NCCOCCOCCNC(=O)[C@H]2CC(=O)N(C)[C@@H]2c2cccnc2)C1` [Example 119, (2S,3S)-N-(20-(((1R,2S,5R)-5-(Isopropyl(methyl)amino)-2-((S)-2-oxo-3-((6-(trifluoromethyl)quinazolin-4-yl)amino)pyrrolidin-1-yl)cyclohexyl)amino)-10,20-dioxo-3,6,14,17-tetraoxa-9,11-diazaicosyl)-1-methyl-5-oxo-2-(pyridin-3-yl)pyrrolidine-3-carboxamide], in experiment [1], the EC50 is 1.58 nM. In experiment [2], the “pKd of Antibody” value was 9.1735.
Turning to `CC(C)N(C)[C@@H]1CC[C@H](N2CC[C@H](Nc3ncnc4ccc(C(F)(F)F)cc34)C2=O)[C@H](NC(=O)[C@H]2CC[C@@H](NC(=O)CCO[C@H]3CC[C@H](OCCNC(=O)[C@H]4CC(=O)N(C)[C@@H]4c4cccnc4)CC3)CC2)C1` [Example 112, (2S,3S)-N-(2-(((1S,4S)-4-(3-(((1S,4S)-4-(((1R,2S,5R)-5-(Isopropyl(methyl)amino)-2-((S)-2-oxo-3-((6-(trifluoromethyl)quinazolin-4-yl)amino)pyrrolidin-1-yl)cyclohexyl)carbamoyl)cyclohexyl)amino)-3-oxopropoxy)cyclohexyl)oxy)ethyl)-1-methyl-5-oxo-2-(pyridin-3-yl)pyrrolidine-3-carboxamide], the EC50 in experiment [1] is 0.398 nM. Moreover, in experiment [2], the “pKd of Antibody” value is listed as 9.343.
